{
  "source": "patent US20190240344A1",
  "about": "“FUNCTIONAL RNA AND SMALL-MOLECULE DRUG THERAPEUTIC COMPLEXES AND NANOPARTICLE DELIVERY VEHICLES” (EOS BIOSCIENCES, INC., priority 2016, published 2019)",
  "key": {"[1]": {"test_system": "JIMT1 cells (trastuzumb-resistant human breast cancer)", "experiment": "Cell viability of JIMT1 cells after transfection (Celltiter Glo, ATP)", "assay_type": "cell-based", "settings": "three doses, 24, 48, 72 hours, RNAiMax lipofectamine carrier (doxorubicin alone without lipofectamine)", "description": "(§1) To measure the effect of the complexes on cell viability, the formed complexes were transfected into JIMT1 cells (trastuzumb-resistant human breast cancer). Approximately 10,000 cells per well were plated in 96-well plates, maintained in RPMI 1640 medium with 100% fetal bovine serum, 100 U/mL penicillin, 100 μg/mL streptomycin at 37° C. under 5% CO2. After 24 hours, the culture media was replaced with Opti-MEM I reduced serum medium (Invitrogen Life Technologies). RNAiMax lipofectamine (Invitrogen Life Technologies) was used as a carrier for siRNA, Dox:siRNA complexes, and the Dox:DNA oligo complex delivery. Doxorubicin was administered to the control sample without the lipofectamine. Three hours following transfection, the medium in each sample was replaced with complete culture media. After 24, 48, or 72 hours, relative cell viability was determined by quantifying ATP using Celltiter Glo Luminescent Cell Viability Kit (Promega), according to the manufacturer's instructions. Experiments were conducted in triplicate. Results are shown in FIG. 5A (24 hours), 5B (48 hours), and SC (72 hours)."}, "[2]": {"test_system": "4T1-Fluc-Neo/eGFP-Puro cells (mouse mammary carcinoma cells)", "experiment": "Cell viability of 4T1-Fluc-Neo/eGFP-Puro cells after transfection (Celltiter Glo, ATP)", "assay_type": "cell-based", "settings": "three doses, 24 hours, RNAiMax lipofectamine carrier (doxorubicin alone without lipofectamine)", "description": "as §1, with “4T1-Fluc-Neo/eGFP-Puro” for “JIMT1”, “(mouse mammary carcinoma cells stably expressing FLuc and eGFP).” for “(trastuzumb-resistant human breast cancer).”, “[…],” for “100%”, “siScrm2, dox:siScrm2, siRNA3, or dox:siRNA3” for “siRNA, Dox:siRNA complexes, and the Dox:DNA oligo complex”, “24” for “24, 48, or 72”, “triplicate.” for “triplicate. Results are shown in FIG. 5A (24 hours), 5B (48 hours), and SC (72 hours).”"}},
  "data": [
    {"smiles": "COc1cccc2c1C(=O)c1c(O)c3c(c(O)c1C2=O)C[C@@](O)(C(=O)CO)C[C@@H]3O[C@H]1C[C@H](N)[C@H](O)[C@H](C)O1", "note": "[doxorubicin]", "values": [
      {"measurement": "relative cell viability", "setting": "[1]", "value": "dose-dependent decrease in cell viability"},
      {"measurement": "relative cell viability", "setting": "[2]", "value": "dose-dependent decrease in cell viability"}
    ]}
  ]
}
